Source: patent US8653100B2 (AbbVie Inc., priority 2008, dated 2014)
Where a name gives a salt, the structure may show the parent alone.

What follows are compounds tested against human GlyT1c transporter (Homo sapiens (Human), UniProt P48067) (assay: Radioligand binding assay using recombinant CHO cell membranes expressing human GlyT1). Settings: examples 88-204, radioligand not specified by footnote, read-out: radioligand binding Kiapp.
Sequence of human GlyT1c transporter (P48067 whole entry): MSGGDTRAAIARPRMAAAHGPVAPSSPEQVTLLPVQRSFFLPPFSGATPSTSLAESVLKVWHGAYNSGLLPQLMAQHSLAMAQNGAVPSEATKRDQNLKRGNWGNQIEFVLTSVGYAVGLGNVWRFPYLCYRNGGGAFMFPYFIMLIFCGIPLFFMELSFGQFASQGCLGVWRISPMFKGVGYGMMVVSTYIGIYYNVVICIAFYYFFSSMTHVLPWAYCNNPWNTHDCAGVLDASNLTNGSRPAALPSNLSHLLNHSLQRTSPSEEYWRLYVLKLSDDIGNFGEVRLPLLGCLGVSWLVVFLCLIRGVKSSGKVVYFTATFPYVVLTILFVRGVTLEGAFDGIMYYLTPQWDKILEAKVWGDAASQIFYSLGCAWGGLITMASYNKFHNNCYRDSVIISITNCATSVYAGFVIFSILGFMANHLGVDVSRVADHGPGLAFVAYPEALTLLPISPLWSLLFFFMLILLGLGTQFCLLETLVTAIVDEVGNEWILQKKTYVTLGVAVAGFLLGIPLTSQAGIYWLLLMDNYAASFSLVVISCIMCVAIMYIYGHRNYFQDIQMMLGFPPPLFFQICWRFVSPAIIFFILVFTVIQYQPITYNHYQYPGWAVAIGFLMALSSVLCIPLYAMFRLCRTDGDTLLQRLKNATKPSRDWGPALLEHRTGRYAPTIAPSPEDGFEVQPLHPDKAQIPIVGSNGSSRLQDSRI
Method in brief: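 Competition binding of [^3H]-(R)-NPTS (0.5 nM) to CHO membranes expressing human GlyT1c (50 μg/ml protein) in pH 7.5 Hepes/NaCl buffer with 1% DMSO, 1 h at room temperature. Non-specific binding defined with 10 μM Org24598; filtration and scintillation counting, one-site fit, Ki via Cheng-Prusoff.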
`Cn1cc(S(=O)(=O)NCc2ccc3c(c2)C(C2(c4ccc(Cl)cc4)CCC2)NCC3)cn1` (stereo not shown) [Example 91, N-({1-[1-(4-Chlorophenyl)cyclobutyl]-1,2,3,4-tetrahydroisoquinolin-7-yl}methyl)-1-methyl-1H-pyrazole-4-sulfonamide trifluoroacetate] was tested, and the Ki was ≤ 100 nM.
With `CNc1nnc(S(=O)(=O)NCCOc2ccc3c(c2)C(C2(c4ccc(Cl)cc4)CCC2)NCC3)s1` (stereo not shown) [Example 162, N-[2-({1-[1-(4-Chlorophenyl)cyclobutyl]-1,2,3,4-tetrahydroisoquinolin-7-yl}oxy)ethyl]-5-(methylamino)-1,3,4-thiadiazole-2-sulfonamide hydrochloride] the Ki was ≤ 1000 nM.
With `Cn1cc(S(=O)(=O)NCc2ccc3c(c2)C(C(C)(C)c2ccc(Cl)cc2)NCC3)cn1` (stereo not shown) [Example 100, N-({1-[2-(4-Chlorophenyl)propan-2-yl]-1,2,3,4-tetrahydroisoquinolin-7-yl}methyl)-1-methyl-1H-pyrazole-4-sulfonamide hydrochloride] the Ki was ≤ 100 nM.
For `O=S(=O)(NCCOc1ccc2c(c1)C(C1(c3ccc(Cl)cc3)CCC1)NCC2)C1CCCNC1` (single isomer, unassigned) [Example 164, N-[2-({1-[1-(4-Chlorophenyl)cyclobutyl]-1,2,3,4-tetrahydroisoquinolin-7-yl}oxy)ethyl]piperidine-3-sulfonamide dihydrochloride], the Ki was ≤ 1000 nM.
For `Cn1cnc(S(=O)(=O)NCc2ccc3c(c2)C(C2(c4ccc(Cl)cc4)CCC2)NCC3)c1` (stereo not shown) [Example 93, N-({1-[1-(4-Chlorophenyl)cyclobutyl]-1,2,3,4-tetrahydroisoquinolin-7-yl}methyl)-1-methyl-1 H-imidazole-4-sulfonamide hydrochloride], the Ki was ≤ 100 nM.
In the case of `Nc1ncc(S(=O)(=O)NCCOc2ccc3c(c2)C(C2(c4ccc(Cl)cc4)CCC2)NCC3)cn1` (stereo not shown) [Example 150, 2-Amino-N-[2-({1-[1-(4-chlorophenyl)cyclobutyl]-1,2,3,4-tetrahydroisoquinolin-7-yl}oxy)ethyl]pyrimidine-5-sulfonamide], the Ki is reported as ≤ 100 nM.
With `O=S(=O)(Nc1ccc(Oc2ccc3c(c2)C(C2(c4ccc(Cl)cc4)CCC2)NCC3)nc1)c1cccs1` (stereo not shown) [Example 124, N-[6-({1-[1-(4-Chlorophenyl)cyclobutyl]-1,2,3,4-tetrahydroisoquinolin-7-yl}oxy)pyridin-3-yl]thiophene-2-sulfonamide dihydrochloride] the Ki was ≤ 10000 nM.
`O=S(=O)(NCCOc1ccc2c(c1)C(C1(c3ccc(Cl)cc3)CCC1)NCC2)c1ccc(N2CCOCC2)nc1` (stereo not shown) [Example 189, N-[2-({1-[1-(4-Chlorophenyl)cyclobutyl]-1,2,3,4-tetrahydroisoquinolin-7-yl}oxy)ethyl]-6-(morpholin-4-yl)pyridine-3-sulfonamide hydrochloride] was tested, and the Ki was ≤ 10000 nM.
With `O=S(=O)(Nc1ccc(Oc2ccc3c(c2)C(C2(c4ccc(Cl)cc4)CCC2)NCC3)cc1)c1cccs1` (stereo not shown) [Example 115, N-[4-({1-[1-(4-Chlorophenyl)cyclobutyl]-1,2,3,4-tetrahydroisoquinolin-7-yl}oxy)phenyl]thiophene-2-sulfonamide hydrochloride] the Ki was ≤ 1000 nM.
In the case of `CN(C)S(=O)(=O)NCCOc1ccc2c(c1)C(C1(c3ccc(Cl)cc3)CCC1)NCC2` (stereo not shown) [Example 143, N′-[2-({1-[1-(4-Chlorophenyl)cyclobutyl]-1,2,3,4-tetrahydroisoquinolin-7-yl}oxy)ethyl]-N,N-dimethylsulfuric diamide hydrochloride], the Ki is reported as ≤ 100 nM.
In the case of `CCCS(=O)(=O)NCCOc1ccc2c(c1)C(C1(c3ccccn3)CCC1)NCC2` (stereo not shown) [Example 98, N-[2-({1-[1-(Pyridin-2-yl)cyclobutyl]-1,2,3,4-tetrahydroisoquinolin-7-yl}oxy)ethyl]propane-1-sulfonamide dihydrochloride], the Ki is reported as ≤ 100 nM.
`C/C=C/S(=O)(=O)NCCOc1ccc2c(c1)C(C1(c3ccc(Cl)cc3)CCC1)NCC2` (stereo not shown) [Example 88, (1E)-N-[2-({1-[1-(4-Chlorophenyl)cyclobutyl]-1,2,3,4-tetrahydroisoquinolin-7-yl}oxy)ethyl]prop-1-ene-1-sulfonamide hydrochloride] was tested, and the Ki was ≤ 100 nM.
For `O=S(=O)(CCCF)NCCOc1ccc2c(c1)C(C1(c3ccc(Cl)cc3)CCC1)NCC2` (stereo not shown) [Example 140, N-[2-({1-[1-(4-Chlorophenyl)cyclobutyl]-1,2,3,4-tetrahydroisoquinolin-7-yl}oxy)ethyl]-3-fluoropropane-1-sulfonamide hydrochloride], the Ki was ≤ 100 nM.
For `O=S(=O)(CCN1CCCCC1)NCCOc1ccc2c(c1)C(C1(c3ccc(Cl)cc3)CCC1)NCC2` (stereo not shown) [Example 161, N-[2-({1-[1-(4-Chlorophenyl)cyclobutyl]-1,2,3,4-tetrahydroisoquinolin-7-yl}oxy)ethyl]-2-(piperidin-1-yl)ethanesulfonamide (2E)-but-2-enedioate], the Ki was ≤ 1000 nM.
With `Nc1cccc(S(=O)(=O)NCCOc2ccc3c(c2)C(C2(c4ccc(Cl)cc4)CCC2)NCC3)c1` (stereo not shown) [Example 157, 3-Amino-N-[2-({1-[1-(4-chlorophenyl)cyclobutyl]-1,2,3,4-tetrahydroisoquinolin-7-yl}oxy)ethyl]benzenesulfonamide dihydrochloride] the Ki was ≤ 100 nM.
With `O=S(=O)(NCCOc1ccc2c(c1)C(C1(c3ccc(Cl)cc3)CCC1)NCC2)C1CCCNC1` (single isomer, unassigned) [Example 160, N-[2-({1-[1-(4-Chlorophenyl)cyclobutyl]-1,2,3,4-tetrahydroisoquinolin-7-yl}oxy)ethyl]piperidine-3-sulfonamide dihydrochloride] the Ki was ≤ 100 nM.

These compounds were tested against human GlyT1c (Homo sapiens (Human), UniProt P48067) (assay: [3H]-Glycine uptake into recombinant CHO cells expressing human GlyT1). Settings: hGlyT1c_5_CHO cells, 200 nM [3H]-glycine.
Sequence of human GlyT1c (P48067 whole entry): as above
Format: cell-based
Protocol: [^3H]-Glycine uptake into recombinant CHO cells expressing human GlyT1: Human GlyT1c expressing recombinant hGlyT1c—5_CHO cells were plated at 20,000 cells per well in 96 well Cytostar-T scintillation microplates (Amersham Biosciences) and cultured to sub-confluency for 24 h. […] The plates were placed in a Wallac Microbeta (PerkinElmer) and continuously counted by solid phase scintillation spectrometry during up to 3 hours. […] IC50 calculations were made by four-parametric logistic nonlinear regression analysis (GraphPad Prism) using determinations within the range of linear increase of [^3H]-glycine incorporation between 60 and 120 min.
With `Cn1cnc(S(=O)(=O)NCCOc2ccc3c(c2)C(C2(c4ccc(Cl)cc4)CCC2)NCC3)c1` (stereo not shown) [Example 51, 1-(1-(4-Chlorophenyl)cyclobutyl)-7-(2-(1-methyl-1H-imidazole-4-sulfonamido)ethoxy)-1,2,3,4-tetrahydroisoquinolinium chloride] the IC50 was ≤ 100 nM.
With `CCCS(=O)(=O)NCCOc1ccc2c(c1)C(C1(c3ccc(F)cc3)CCC1)N(c1ncc[nH]1)CC2` (stereo not shown) [Example 79, N-[2-({1-[1-(4-Fluorophenyl)cyclobutyl]-2-(1H-imidazol-2-yl)-1,2,3,4-tetrahydroisoquinolin-7-yl}oxy)ethyl]propane-1-sulfonamide] the IC50 was ≤ 1000 nM.
For `CCCS(=O)(=O)NCCOc1ccc2c(c1)C(C1(c3ccc(F)cc3)CCC1)N(N)CC2` (stereo not shown) [Example 75, N-[2-({2-Amino-1-[1-(4-fluorophenyl)cyclobutyl]-1,2,3,4-tetrahydroisoquinolin-7-yl}oxy)ethyl]propane-1-sulfonamide], the IC50 was ≤ 1000 nM.
In the case of `CCOC(=O)N1CCN(S(=O)(=O)NCCOc2ccc3c(c2)C(C2(c4ccc(Cl)cc4)CCC2)NCC3)CC1` (stereo not shown) [Example 54, Ethyl 4-(N-(2-(1-(1-(4-chlorophenyl)cyclobutyl)-1,2,3,4-tetrahydroisoquinolin-7-yloxy)ethyl)sulfamoyl)piperazine-1-carboxylate hydrochloride], the IC50 is reported as ≤ 10000 nM.
In the case of `O=C(NCCOc1ccc2c(c1)C(C1(c3ccc(Cl)cc3)CCC1)NCC2)c1ccccc1` (stereo not shown) [Example 3, N-(2-{1-[1-(4-Chloro-phenyl)-cyclobutyl]-1,2,3,4-tetrahydro-isoquinolin-7-yloxy}-ethyl)-benzamide], the IC50 is reported as ≤ 10000 nM.
`CC(C)NC(=O)NCCOc1ccc2c(c1)C(C1(c3ccc(Cl)cc3)CCC1)NCC2` (stereo not shown) [Example 36, 1-(2-{1-[1-(4-Chloro-phenyl)-cyclobutyl]-1,2,3,4-tetrahydro-isoquinolin-7-yloxy}-ethyl)-3-isopropyl-urea hydrochloride] was tested, and the IC50 was ≤ 100000 nM.
`CCCCS(=O)(=O)NCCOc1ccc2c(c1)C(C1(c3ccc(Cl)cc3)CCC1)N(C)CC2` (stereo not shown) [Example 40, Butane-1-sulfonic acid (2-{1-[1-(4-chloro-phenyl)-cyclobutyl]-2-methyl-1,2,3,4-tetrahydro-isoquinolin-7-yloxy}-ethyl)-amide] was tested, and the IC50 was ≤ 1000 nM.
In the case of `CCCS(=O)(=O)NCCOc1ccc2c(c1)C(C1(c3ccc(Cl)cc3OC)CCC1)NCC2` (stereo not shown) [Example 76, N-[2-({1-[1-(4-Chloro-2-methoxyphenyl)cyclobutyl]-1,2,3,4-tetrahydroisoquinolin-7-yl}oxy)ethyl]propane-1-sulfonamide hydrochloride], the IC50 is reported as ≤ 100 nM.
For `CCCS(=O)(=O)NCCOc1ccc2c(c1)C(C1(c3ccc(Cl)cc3)CCC1)NCC2(C)C` (stereo not shown) [Example 67, N-[2-({1-[1-(4-Chlorophenyl)cyclobutyl]-4,4-dimethyl-1,2,3,4-tetrahydroisoquinolin-7-yl}oxy)ethyl]propane-1-sulfonamide hydrochloride], the IC50 was ≤ 100 nM.
With `CCCS(=O)(=O)NCCN(CCOc1ccc2c(c1)C(C1(c3ccc(Cl)cc3)CCC1)NCC2)S(=O)(=O)CCC` (stereo not shown) [Example 45, Propane-1-sulfonic acid (2-{1-[1-(4-chloro-phenyl)-cyclobutyl]-1,2,3,4-tetrahydro-isoquinolin-7-yloxy}-ethyl)-[2-(propane-1-sulfonylamino)-ethyl]amide] the IC50 was ≤ 1000 nM.
`CCCS(=O)(=O)NCCOc1ccc2c(c1)C(C1(c3cccc(Cl)c3)CCC1)NCC2` (stereo not shown) [Example 49, Propane-1-sulfonic acid (2-{1-[1-(3-chloro-phenyl)-cyclobutyl]-1,2,3,4-tetrahydroisoquinolin-7-yloxy}-ethyl)-amide] was tested, and the IC50 was ≤ 100 nM.
For `CCCCS(=O)(=O)NCCOc1ccc2c(c1)C(C1(c3ccc(Cl)cc3)CCC1)N(C(=O)NCC)CC2` (stereo not shown) [Example 39, 7-[2-(Butane-1-sulfonylamino)-ethoxy]-1-[1-(4-chloro-phenyl)-cyclobutyl]-3,4-dihydro-1H-isoquinoline-2-carboxylic acid ethylamide hydrochloride], the IC50 was ≤ 100000 nM.
